Experimental data taken from patent publication US20200385396A1, “Compond for treatment or prevention of obesity or diseases related to obesity, and application thereof” (SHANGHAI INSTITUTES FOR BIOLOGICAL SCIENCES, CHINESE …, priority 2017, published 2020).

Columns and labels:
normal mice = experiment: Food intake of mice after single intraperitoneal injection; assay type: in vivo, mouse; conditions: 20 mg/kg intraperitoneal; 0-3 h, 0-6 h, 0-12 h, 0-24 h
Procedure: Mice were intraperitoneally injected with DMSO or HLY72 (dissolved in DMSO) 25 μL within 2 hours before turning off the lamp. During the intragastric experiment, the high concentration of HLY72 dissolved in DMSO was dissolved in 10% cyclodextrin, and the total volume was 100 μL Volume by gavage, so that the final concentration of DMSO was less than 10%. The diet was weighed at the 3rd hour, the 6th hour, the 12th hour, and the 24th hour respectively after the lights out. The corresponding mouse body weight was also weighed at the same time before the daily administration. The fat content of mice was measured with the magnetic resonance fat content measuring instrument of the animal platform in SIBCB.
The next question we are very concerned about is whether HLY78 has similar functions to NUCB2 protein in mice. Up to now, the most classic function reported for NUCB2 protein is to reduce the food intake of mice at night. Therefore, the experiment was designed: 20 mg/kg of HLY78 was injected intraperitoneally within two hours before turning off the lights at night, and then the food intake of the mice was measured at different time points (0-3 h, 0-6 h, 0-12 h, 0-24 h). […] During the three days of the adaptive injection period before HLY78 injection, both groups of mice were injected with DMSO. On the day of injection of HLY78 and the two days before the injection of DMSO, the body weight of the two groups of mice is also the same (FIG. 2b).
Next, two small molecules HLY72 and HLY103 were selected to perform functional experiments on the food intake in mice.

db/db mice and DIO mice = experiment: Long-term administration, weight loss in db/db mice and DIO mice; assay type: in vivo, mouse
Wnt signal = experiment: TOPFlash reporter gene activity test in HEK293T cells; assay type: cell-based
Procedure: The HEK293T cells used for the measurement of reporter gene activity were plated at 20 hours before transfection and cultured to about 50% coverage for the transfection. The transfection method was as described above. For HEK293T cells, transfection was performed according to 20 ng TOPFlash, 20 ng GFP and 460 ng lacZ per well, and Wnt3a or Nesfatin-1/NUCB2 protein was added at 18 hours after transfection to stimulate for 6-8 hours, and the cell was lysed with Boehringer Mannheim Luciferase Assay Kit (200 μl/well) for 15 minutes, 50 μl lysate was added in the fluorometer BIO-TEK Synergy2 (Gene Company Limited) to measure the GFP fluorescence intensity in the cell lysate as an internal standard, and then 20 μl luciferase substrate (Roche) was added for the reaction, the luciferase activity was detected in the chemiluminescence channel, and finally the GFP reading was used as an internal standard for homogenization.
We focus on the three small molecules HLY72, HLY103, and HSS49A (FIG. 3a). […] So that the first biochemical experiment design is: whether these three small molecules can compete for the binding of HLY179 to NUCB2 protein.

NUCB2 protein [1] = target: T1, NUCB2 protein (Mus musculus, UniProt P81117); experiment: In vitro binding experiment (streptavidin-agarose pull-down, Western blot) of biotin-linked small molecules with full-length NUCB2; conditions: mouse full-length NUCB2 expressed in E. coli
T1 construct: Immediately the mouse full-length NUCB2 protein expressed in E. coli was purified; His tag (inferred from pET-28A vector, Ni-NTA purification and His antibody); made in house; host or cells: E. coli BL21-CodonPlus (DE3)
T1 sequence (P81117 25-420): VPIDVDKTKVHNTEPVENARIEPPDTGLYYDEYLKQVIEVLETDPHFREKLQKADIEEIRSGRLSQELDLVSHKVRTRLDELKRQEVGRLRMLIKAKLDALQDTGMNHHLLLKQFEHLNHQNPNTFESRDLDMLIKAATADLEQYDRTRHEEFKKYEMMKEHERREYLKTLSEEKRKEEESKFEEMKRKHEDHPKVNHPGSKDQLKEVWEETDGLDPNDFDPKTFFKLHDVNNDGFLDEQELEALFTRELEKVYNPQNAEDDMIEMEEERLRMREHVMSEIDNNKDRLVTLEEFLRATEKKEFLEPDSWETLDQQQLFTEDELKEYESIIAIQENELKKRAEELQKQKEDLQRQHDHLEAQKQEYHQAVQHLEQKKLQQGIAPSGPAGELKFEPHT
Procedure: (§1) When doing the combining experiments, (1) pre-treating Streptavidin-Agarose, washing Streptavidin-Agarose Beads with IP buffer, and spinning it on the rotor for 10 minutes. (2) Re-binding small molecules HLY179 (20 μM) and Streptavidin-Agarose Beads, spinning it in a refrigeration house at 4° C. for 1-2 hours. (3) When the previous step was performed for about 1 hour, the protein was pre-cleared at the same time, and the protein and the washed Streptavidin-Agarose were rotated in a refrigeration house at 4° C. for 30 minutes. (4) the Streptavidin-Agarose Beads binded with HLY179 was centrifuged, the supernatant was removed, washed again with 600 μL of IP buffer (rotated at 4° C. for 3 minutes), centrifuged, and the supernatant was removed carefully. (5) the pre-cleard protein was added and rotated in a refrigeration house at 4° C. for 2 hours. Washd twice with IP buffer 800 μL, 2 minutes each time (all rotated in a refrigeration house at 4° C.). After the last wash, the supernatant was removed, 40 μL of 2*loading was added and cooked for 10 minutes, stored at −20° C. When doing competitive binding experiments, in the third step while pre-treating the protein adding different small molecule compounds, the final concentration was 100 μM, and the rest was the same. Western Blot: Preparing the appropriate concentration of SDS-PAGE gel, adding protein sample for electrophoretic separation. […]

NUCB2 protein [2] = target: T1, NUCB2 protein; experiment: Competitive binding experiment: small molecules compete with Bio78 (HLY179) for NUCB2; conditions: competitor final concentration 100 μM; HLY179 20 μM
Procedure: as §1

binding of purified NUCB2 protein to small molecule (NUCB2 protein [1]): specifically binds | compete with Bio78 for binding to NUCB2 (NUCB2 protein [2]): can compete
Structure (SMILES): CCc1cccc2c1N(C)Cc1cc3c(cc1-2)OCO3 [HLY78]
food intake of mice (normal mice): significantly reduce | weight loss effect (db/db mice and DIO mice): good weight loss effect | activity of Wnt signal activation (Wnt signal): can synergistically activate
